Reference: ChEMBL document CHEMBL4351021, “Design, synthesis and biological evaluation of novel FFA1/GPR40 agonists: New breakthrough in an old scaffold” (Eur J Med Chem, 2019)
The source made the active and inactive calls. The calls are words filed in the database; no cut-off is given here.

Tested on: Rattus norvegicus
Assay: Antidiabetic activity in Sprague-Dawley rat assessed as change plasma in insulin level at 10 mg/kg, po pretreated for 1 hr followed by glucose challenge by ELISA
Format: functional, organism-based
Conditions: TDE = time-dependent effect

SMILES | Activity
O=C(O)COc1ccc(NCc2cccc(-c3ccccc3C(F)(F)F)c2)cc1F | Tde

Target: T1, Free fatty acid receptor 1 (Homo sapiens, UniProt O14842)
T1 sequence (O14842 whole entry): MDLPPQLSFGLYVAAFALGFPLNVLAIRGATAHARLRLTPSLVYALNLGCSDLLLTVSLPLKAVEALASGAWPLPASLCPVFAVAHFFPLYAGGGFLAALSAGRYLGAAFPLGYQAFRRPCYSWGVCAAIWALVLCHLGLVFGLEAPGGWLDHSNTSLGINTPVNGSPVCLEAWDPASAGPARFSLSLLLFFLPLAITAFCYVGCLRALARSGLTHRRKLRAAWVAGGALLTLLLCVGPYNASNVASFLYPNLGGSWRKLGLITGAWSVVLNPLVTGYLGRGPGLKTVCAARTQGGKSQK
Assay: Potency index, ratio of EC50 for 2-(4-(([…]3-yl)methoxy)-2-fluorophenoxy)acetic acid to EC50 for test compound for Agonist activity at FFA1 receptor (unknown origin) stably expressed in CHO cells assessed as increase in calcium flux by Fluo4-AM based FLIPR assay
Format: functional, cell-based
Conditions: not given

SMILES | Ratio EC50
CCOc1cc(C)c(-c2cccc(CNc3ccc(OCC(=O)O)c(F)c3)c2)c(C)c1 | 3

Tested on: Rattus norvegicus
Assay: Antidiabetic activity in Sprague-Dawley rat assessed as increase in plasma insulin level at 10 mg/kg, po administrated and measured up to 120 mins by ELISA
Format: functional, organism-based
Conditions: not given

SMILES | Activity
O=C(O)COc1ccc(NCc2cccc(-c3ccccc3C(F)(F)F)c2)cc1F | inactive

Tested on: Mus musculus
Assay: Antidiabetic activity in HFD fed/STZ-treated C57BL/6 mouse assessed as decrease in blood glucose at 20 mg/kg, po pretreated for 30 mins followed by glucose challenge and measured after up to 120 mins by OGTT
Format: functional, organism-based
Conditions: not given

SMILES | Activity
O=C(O)COc1ccc(NCc2cccc(-c3ccccc3C(F)(F)F)c2)cc1F | Active
Cc1cc(OCCCS(C)(=O)=O)cc(C)c1-c1cccc(COc2ccc3c(c2)OC[C@H]3CC(=O)O)c1 | Active

Tested on: not listed separately
Assay: Acute toxicity in ICR mouse assessed as change in liver morphology at 5 to 500 mg/kg, po daily for 7 days by H and E staining based histopathological analysis
Format: organism-based
Conditions: in vivo, 168 h

SMILES | Activity
O=C(O)COc1ccc(NCc2cccc(-c3ccccc3C(F)(F)F)c2)cc1F | Non-Toxic

Tested on: Rattus norvegicus
Assay: Antidiabetic activity in Sprague-Dawley rat assessed as suppression in blood glucose excursion at 10 mg/kg, po pretreated for 1 hr followed by glucose challenge and measured up to 120 mins by OGTT
Format: functional, organism-based
Conditions: not given

SMILES | Activity
O=C(O)COc1ccc(NCc2cccc(-c3ccccc3C(F)(F)F)c2)cc1F | Active

Tested on: Rattus norvegicus
Assay: Antidiabetic activity in Sprague-Dawley rat assessed as increase in plasma insulin level at 10 mg/kg, po pretreated for 1 hr followed by glucose challenge and measured at 0 mins by ELISA
Format: functional, organism-based
Conditions: not given

SMILES | Activity
O=C(O)COc1ccc(NCc2cccc(-c3ccccc3C(F)(F)F)c2)cc1F | Active

Tested on: not listed separately
Assay: Acute toxicity in ICR mouse assessed as induction of side effects at 5 to 500 mg/kg, po daily for 7 days
Format: organism-based
Conditions: in vivo, 168 h

SMILES | Activity
O=C(O)COc1ccc(NCc2cccc(-c3ccccc3C(F)(F)F)c2)cc1F | Non-Toxic

Target: T1, Free fatty acid receptor 1
Assay: Agonist activity at FFA1 receptor (unknown origin) stably expressed in CHO cells assessed as increase in calcium flux by Fluo4-AM based FLIPR assay
Format: functional, cell-based
Conditions: not given

SMILES | EC50 [µM]
COc1ccccc1-c1cccc(CNc2ccc(OCC(=O)O)c(F)c2)c1 | 0.536
Cc1cc(O)ccc1-c1cccc(CNc2ccc(OCC(=O)O)c(F)c2)c1 | 0.0696
CCCOc1cc(C)c(-c2cccc(CNc3ccc(OCC(=O)O)c(F)c3)c2)c(C)c1 | 0.0387
CC(C)c1ccccc1-c1cccc(CNc2ccc(OCC(=O)O)c(F)c2)c1 | 0.0862
CO/N=C(\COc1ccc(CNc2ccc(OCC(=O)O)c(F)c2)cc1)c1ccccc1 | 0.398
O=C(O)COc1ccc(NCc2cccc(-c3ccccc3C(F)(F)F)c2)cc1F | 0.0157
Cc1cc(OCCO)ccc1-c1cccc(CNc2ccc(OCC(=O)O)c(F)c2)c1 | 0.0361
N#Cc1ccccc1-c1cccc(CNc2ccc(OCC(=O)O)c(F)c2)c1 | 0.729
Cc1cc(OCCCS(C)(=O)=O)ccc1-c1cccc(CNc2ccc(OCC(=O)O)c(F)c2)c1 | 0.0456
Cc1cc(OCCCS(C)(=O)=O)cc(C)c1-c1cccc(CNc2ccc(OCC(=O)O)c(F)c2)c1 | 0.0598
O=C(O)COc1ccc(NCc2cccc(-c3ccccc3Cl)c2)cc1F | 0.0193
CCOc1cc(C)c(-c2cccc(CNc3ccc(OCC(=O)O)c(F)c3)c2)c(C)c1 | 0.0242

Tested on: not listed separately
Assay: Acute toxicity in ICR mouse assessed as change in AST level up to 500 mg/kg, po daily for 7 days
Format: organism-based
Conditions: in vivo, 168 h

SMILES | Activity
O=C(O)COc1ccc(NCc2cccc(-c3ccccc3C(F)(F)F)c2)cc1F | Non-Toxic

Tested on: not listed separately
Assay: Clearance in Sprague-Dawley rat at 10 mg/kg, po measured for […] by LC-MS/MS analysis
Format: ADME, organism-based
Conditions: in vivo

SMILES | CL [mL/min/kg]
O=C(O)COc1ccc(NCc2cccc(-c3ccccc3C(F)(F)F)c2)cc1F | 0.124
Cc1cc(OCCCS(C)(=O)=O)cc(C)c1-c1cccc(COc2ccc3c(c2)OC[C@H]3CC(=O)O)c1 | 0.4177

Tested on: not listed separately
Assay: Cmax in Sprague-Dawley rat at 10 mg/kg, po measured for […] by LC-MS/MS analysis
Format: ADME, organism-based
Design: dose 10 mg/kg, route oral
Conditions: in vivo

SMILES | Cmax [µg/mL]
O=C(O)COc1ccc(NCc2cccc(-c3ccccc3C(F)(F)F)c2)cc1F | 322
Cc1cc(OCCCS(C)(=O)=O)cc(C)c1-c1cccc(COc2ccc3c(c2)OC[C@H]3CC(=O)O)c1 | 87.4

Tested on: not listed separately
Assay: AUC (0 to 24 hrs) in Sprague-Dawley rat at 10 mg/kg, po measured for […] by LC-MS/MS analysis
Format: ADME, organism-based
Design: time < 24 hr, dose 10 mg/kg, route oral
Conditions: in vivo, 24 h

SMILES | AUC [µg·h/mL]
O=C(O)COc1ccc(NCc2cccc(-c3ccccc3C(F)(F)F)c2)cc1F | 3909.33
Cc1cc(OCCCS(C)(=O)=O)cc(C)c1-c1cccc(COc2ccc3c(c2)OC[C@H]3CC(=O)O)c1 | 1064.23

Tested on: Hepatocyte
Assay: Hepatotoxicity in sandwich-cultured Sprague-Dawley rat hepatocytes assessed as inhibition of hepatobiliary transport by measuring biliary excretion index at 25 uM incubated for 15 mins followed by d8-TCA addition and measured after 15 mins by LC-MS/MS analysis
Format: toxicity, cell-based
Conditions: 0.25 h

SMILES | Activity_index [%]
O=C(O)COc1ccc(NCc2cccc(-c3ccccc3C(F)(F)F)c2)cc1F | 29.6
Cc1cc(OCCO)ccc1-c1cccc(CNc2ccc(OCC(=O)O)c(F)c2)c1 | 14.3

Tested on: Mus musculus
Assay: Antidiabetic activity in ICR mouse assessed as reduction in blood glucose level at 20 mg/kg, po pretreated for 30 mins followed by glucose challenge and measured up to 120 mins by OGTT
Format: functional, organism-based
Conditions: not given

SMILES | Activity
O=C(O)COc1ccc(NCc2cccc(-c3ccccc3C(F)(F)F)c2)cc1F | Active
O=C(O)COc1ccc(NCc2cccc(-c3ccccc3Cl)c2)cc1F | Active
CCOc1cc(C)c(-c2cccc(CNc3ccc(OCC(=O)O)c(F)c3)c2)c(C)c1 | Active
Cc1cc(OCCCS(C)(=O)=O)cc(C)c1-c1cccc(COc2ccc3c(c2)OC[C@H]3CC(=O)O)c1 | Active

Tested on: Mus musculus
Assay: Antidiabetic activity in ICR mouse assessed as glucose-stimulated change in GLP-1 secretion at 20 mg/kg, po pretreated for 0.5 hrs followed by glucose challenge and measured after 5 mins by ELISA
Format: functional, organism-based
Conditions: not given

SMILES | Activity
O=C(O)COc1ccc(NCc2cccc(-c3ccccc3C(F)(F)F)c2)cc1F | inactive
Cc1cc(OCCCS(C)(=O)=O)cc(C)c1-c1cccc(COc2ccc3c(c2)OC[C@H]3CC(=O)O)c1 | inactive

Tested on: Hepatocyte
Assay: Hepatotoxicity in sandwich-cultured Sprague-Dawley rat hepatocytes assessed as decrease in accumulation of d8-TCA at 25 uM incubated for 15 mins followed by d8-TCA addition and measured after 15 mins by LC-MS/MS analysis
Format: toxicity, cell-based
Conditions: 0.25 h

SMILES | Activity
O=C(O)COc1ccc(NCc2cccc(-c3ccccc3C(F)(F)F)c2)cc1F | Toxic
Cc1cc(OCCO)ccc1-c1cccc(CNc2ccc(OCC(=O)O)c(F)c2)c1 | Toxic
Cc1cc(OCCCS(C)(=O)=O)cc(C)c1-c1cccc(COc2ccc3c(c2)OC[C@H]3CC(=O)O)c1 | Toxic

Tested on: not listed separately
Assay: Lipophilicity, logD of compound in 1-octanol and PBS mixture in pH 7.4 at 100 uM incubated for 24 under shaking condition by HPLC analysis
Format: physicochemical
Conditions: 1-octanol/PBS

SMILES | logD at 100 µM
Cc1cc(O)ccc1-c1cccc(CNc2ccc(OCC(=O)O)c(F)c2)c1 | 1.85
CCCOc1cc(C)c(-c2cccc(CNc3ccc(OCC(=O)O)c(F)c3)c2)c(C)c1 | 3.59
CC(C)c1ccccc1-c1cccc(CNc2ccc(OCC(=O)O)c(F)c2)c1 | 3.45
O=C(O)COc1ccc(NCc2cccc(-c3ccccc3C(F)(F)F)c2)cc1F | 3.13
Cc1cc(OCCO)ccc1-c1cccc(CNc2ccc(OCC(=O)O)c(F)c2)c1 | 1.65
Cc1cc(OCCCS(C)(=O)=O)ccc1-c1cccc(CNc2ccc(OCC(=O)O)c(F)c2)c1 | 1.59
Cc1cc(OCCCS(C)(=O)=O)cc(C)c1-c1cccc(CNc2ccc(OCC(=O)O)c(F)c2)c1 | 1.73
O=C(O)COc1ccc(NCc2cccc(-c3ccccc3Cl)c2)cc1F | 2.71
CCOc1cc(C)c(-c2cccc(CNc3ccc(OCC(=O)O)c(F)c3)c2)c(C)c1 | 3.04

Tested on: not listed separately
Assay: Half life in Sprague-Dawley rat at 10 mg/kg, po measured for […] by LC-MS/MS analysis
Format: ADME, organism-based
Conditions: in vivo

SMILES | half-life [h]
O=C(O)COc1ccc(NCc2cccc(-c3ccccc3C(F)(F)F)c2)cc1F | 4.84
Cc1cc(OCCCS(C)(=O)=O)cc(C)c1-c1cccc(COc2ccc3c(c2)OC[C@H]3CC(=O)O)c1 | 4.32

Tested on: Rattus norvegicus
Assay: Antidiabetic activity in Sprague-Dawley rat assessed as change in blood glucose level in fasting state at 10 mg/kg, po pretreated for 1 hr followed by glucose challenge and measured up to 120 mins by OGTT
Format: functional, organism-based
Conditions: not given

SMILES | Activity
O=C(O)COc1ccc(NCc2cccc(-c3ccccc3C(F)(F)F)c2)cc1F | inactive

Tested on: not listed separately
Assay: Acute toxicity in ICR mouse assessed as change in ALT level up to 500 mg/kg, po daily for 7 days
Format: organism-based
Conditions: in vivo, 168 h

SMILES | Activity
O=C(O)COc1ccc(NCc2cccc(-c3ccccc3C(F)(F)F)c2)cc1F | Non-Toxic

Tested on: Mus musculus
Assay: Antidiabetic activity in ICR mouse assessed as increase in GLP-1 secretion at 20 mg/kg, po pretreated with DPP4 inhibitor linagliptin for 1 hr followed by compound addition and measured after 4 hrs by ELISA
Format: functional, organism-based
Conditions: not given

SMILES | Activity
O=C(O)COc1ccc(NCc2cccc(-c3ccccc3C(F)(F)F)c2)cc1F | Active
Cc1cc(OCCCS(C)(=O)=O)cc(C)c1-c1cccc(COc2ccc3c(c2)OC[C@H]3CC(=O)O)c1 | inactive

Tested on: Rattus norvegicus
Assay: Antidiabetic activity in Sprague-Dawley rat assessed as change in blood glucose level at 10 mg/kg, po pretreated for 1 hr followed by glucose challenge by OGTT
Format: functional, organism-based
Conditions: TDE = time-dependent effect

SMILES | Activity
O=C(O)COc1ccc(NCc2cccc(-c3ccccc3C(F)(F)F)c2)cc1F | Tde
